The values below come from US20060281813A1, “Methods of treating hyperproliferative cell disorders” (priority 2003, published 2006).

Where “and” joins values, the source holds several entries; their conditions need not be identical. Identical values can stand only once. Like-named read-outs stand apart in the source and are kept apart here.

Data set [1] concerns breast cancer, prostate cancer or leukemia. In words: Example 4: patients with breast cancer, prostate cancer or leukemia. Type of data set: in vivo, human. The conditions noted are these: oral 100 mg/square meter with oral IRESSA.
In data set [2] the test system is advanced head and neck cancer. In words: Example 5: patients with advanced head and neck cancer. As to conditions: oral 100 mg/square meter with oral IRESSA or intravenous C-225. Type of data set: in vivo, human. The text has this: Current systemic chemotherapy regimens are unable to prolong survival of patients with advanced head and neck cancer.
The subject of data set [3] is lung cancer. Kind of data set: Example 6: patients with lung cancer. Type of data set: in vivo, human. As to conditions: oral 100 mg/square meter with oral IRESSA.
Data set [4] has as its system lung cancer. In words: Example 7: lung cancer patients with disease progression on IRESSA alone. Type of data set: in vivo, human. As to conditions: added to IRESSA, oral 100 mg/square meter, optionally calcitriol 0.1-1 mcg per day.
Data set [5] relates to retinoid receptor subtype. As to conditions: competition with all-trans RA; cited from earlier work.
In data set [6] the test system is non small cell lung cancer. In words: Example 2: patient with non small cell lung cancer. It is filed as in vivo, human. The protocol: A patient suffering from non small cell lung cancer was treated with IRESSA® (250 mg per day) for two months. The disease progressed during the treatment and thae patient was continued on IRESSA® (250 mg per day) with daily dosage of 4-oxo-retinol (75 mg per day) for two months. The disease became stable and the patient continued taking IRESSA® (250 mg per day) for 4 more months without 4-oxo-retinol with a stale disease.

Data set [7] relates to refractory/progressive lung cancer. The conditions noted are these: single agent; cited from earlier work.
In data set [8] the test system is colorectal cancer. As to conditions: cited from earlier work.
The subject of data set [9] is ER+ or ER− tumor lines. As to conditions: cited from earlier work.
Data set [10] deals with cutaneous T-cell lymphoma. As to conditions: single patient, oral, with the VD analog calcitriol; cited from earlier work.
In data set [11] the test system is Xenopus laevis. The conditions noted are these: Xenopus laevis system; cited from earlier work.
The test system of data set [12] is small cell lung cancer. In words: Example 8: small cell lung cancer patients with disease progression on IRESSA alone. It is filed as in vivo, human. As to conditions: added to IRESSA about 250-500 mg per day; oral about 100 to 500 mg per day.
For data set [13] the following is noted: cited from earlier work; for peak 1,25-dihydroxyvitamin D serum concentration: healthy volunteers.
For data set [14] the following is noted: cited from earlier work.
Data set [15] relates to F9 embryonal mouse teratocarcinoma cells. As to conditions: all-trans RA-treated, differentiating F9 cells, 18 hour period; cited from earlier work.
The mark [16] stands for this setting: tumors capable of producing 4-oxo-retinol.
[17] abbreviates: tumors that don't produce 4-oxo-retinol.
Setting [18] is: up to 32 mcg/day for 3 months, patients with osteopetrosis.
[19] abbreviates: 4 mcg per day for 4 days, postmenopausal women.
The mark [20] stands for this setting: up to 2.7 mcg/day for 7 to 15 days, normal volunteers.

As for `CC1=C(/C=C/C(C)=C/C=C/C(C)=C/CO)C(C)(C)CCC1O` (centres unmarked) [4-hydroxy-retinol], the “tumor burden versus IRESSA alone” value in [1] and in [3] was “reduced tumor burden” throughout. Moreover, the “survival rate versus IRESSA or C-225 alone” value in data set [2] is on record as “better survival rate”. In addition, the tumor burden entry in data set [4] is recorded as “reduced tumor burden”. The “displacement of all-trans RA” value in data set [5] is “Neither compound efficiently displaced all-trans RA”.

Consider `COc1cc2ncnc(Nc3ccc(F)c(Cl)c3)c2cc1OCCCN1CCOCC1` [IRESSA®, gefitinib], for which the disease course result in [6] (250 mg per day alone for two months) is “progressed”; in [6] (250 mg per day for 4 more months without 4-oxo-retinol) it was “stale disease”. For the same compound, the “overall rate of response” value in data set [7] is recorded as 10-15%.

As to `CCc1c2c(nc3ccc(OC(=O)N4CCC(N5CCCCC5)CC4)cc13)-c1cc3c(c(=O)n1C2)COC(=O)[C@]3(O)CC` [IRITONECAN®], the single-agent activity result in data set [8] was “significant single-agent activity”.

Regarding `CC1=C(/C=C/C(C)=C/C=C/C(C)=C/C(=O)Nc2ccc(O)cc2)C(C)(C)CCC1` [N-(4-hydroxyphenyl)retinamide], the growth inhibition entry in data set [9] (setting [16]) is “growth inhibitory”; in data set [9] (setting [17]) it was “lack growth inhibitory effects”.

For `COc1cc(C)c(/C=C/C(C)=C/C=C/C(C)=C/C(=O)O)c(C)c1C` [acitretin], the clinical response entry in [10] is listed as “complete remission”.

Consider `CC1=C(/C=C/C(C)=C/C=C/C(C)=C/C(=O)O)C(C)(C)CCC1` [all-trans RA, all-trans-retinoic acid], for which the “ED50, teratogenicity” value in data set [11] is reported as roughly 100 nM. The results for the growth inhibition entry in [9] (setting [16]) and in [9] (setting [17]) were “growth inhibitory” and “lack growth inhibitory effects”, respectively.

In the case of `C=C(c1ccc(C(=O)O)cc1)c1cc2c(cc1C)C(C)(C)CCC2(C)C` [bexarotene], the disease course entry in data set [12] was “stable disease or a reduced tumor burden”.

In the case of `C=C1/C(=C\C=C2/CCC[C@]3(C)[C@@H]([C@H](C)CCCC(C)(C)O)CC[C@@H]23)C[C@@H](O)C[C@@H]1O` [calcitriol], the “peak 1,25-dihydroxyvitamin D serum concentration” value in [13] (2 mcg single oral dose) is 0.235 nM and 0.351 nM. Also, in [13] (in vivo), the serum half life is 3 to 6 h and the “time to peak serum concentration” value is 2 h. Moreover, in data set [13] (single oral dose of 4 mcg), the “peak 1,25-dihydroxyvitamin D serum concentration” value is reported as 0.42 nM. For the same compound, in [13] (up to 3 mcg/day for 6-12 days, normal volunteers), the “stable 1,25-dihydroxyvitamin D serum levels” value is 0.184 to 0.235 nM. Moreover, the “peak of stable serum levels of 1,25-dihydroxyvitamin D” value in data set [13] (setting [18]) is given as 2.32 nM. In data set [14] (setting [19]), the hypercalcemia result is “no clinically significant hypercalcemia”, the “patients with serum calcium above 10.8” value is given as “Four of the 27”, the urinary calcium excretion entry is reported as “increased” and the urinary hydroxyproline excretion result is “no increase”. Further, in data set [14] (given intermittently), the “dose tolerated without hypercalcemia” value is no more than 0.48 µg/kg. Besides, in [14] (in vivo), the “duration of hypercalcemic effect” value was 3 to 5 days and the “time of maximal hypercalcemic effect” value is 10 h. In data set [14] (single oral dose of 4 mcg, healthy volunteers), the serum calcium result is listed as “no elevation”. Moreover, in [14] (setting [20]), the “calcium absorption and excretion” value is recorded as “increased”; the serum calcium entry is on record as “no significant elevations”. In addition, the “patients with elevation in serum calcium” value in [14] (up to 3 mcg/day for 6-12 days, low calcium diet) was “None of the patients”. Moreover, the hypercalcemia result in data set [14] (setting [18]) is recorded as “no hypercalcemia”.

As for `CC1=C(/C=C/C(C)=C/C=C/C(C)=C/CO)C(C)(C)CCC1` [retinol, Retinol], in data set [15], the “share of total retinol metabolized to 4-hydroxy-retinol and then 4-oxo-retinol” value is 10-15%.
